Read-outs that look alike come from different tables or passages of the source.
Legend:
Assay type in all cases: cell-based
HIV-1 strain NL4-3 = assay: Anti-HIV-1 luciferase indicator assay in MT2 cells, NL4-3; details: viral strain NL4-3; for IC50: Human immunodeficiency virus 1, NL43, MT2, MT2 cells; for TI / Safety Index (CC50/IC50): MT2 cells
Description: (§1) Compound was dissolved in DMSO to make 30 mM stock. Then the 30 mM stock is further diluted to 4 mM using DMSO. The 4 mM stock was used as the top concentration to carry out an 11-point, 3-fold dilution scheme using DMSO in a 96-well plate to make the compound dose plate. Compounds in the dose plate were transferred to a new 96-well plate (working plate) containing PBS with 0.05% pluronic acid. From this working plate, the compound solution was transferred to the 384-well assay plates.
(§2) Control compounds used in compound control wells were prepared and added to assay plates individually.
(§3) MT2 cells were mixed with HIV-1 strain NL4-3 (or IIIB, or CNHN24) and the cell/virus mixture was added to the aforementioned antivirus assay plates. After incubation in a 37° C., 5% CO2 incubator, the supernatant from the assay plate was transferred to a new 384-well plate containing the indicator cells with a fire fly luciferase gene under HIV-1 LTR control. The expression level of luciferase was related to HIV-1 infectivity and was measured by Bright-Glo kit (Promega).
(§4) Therapeutic index (TI) was determined by taking ratio of CC50/IC50

HIV-1 strain IIIB = assay: Anti-HIV-1 luciferase indicator assay in MT2 cells, IIIB; details: for IC50: Human immunodeficiency virus 1, IIIB; for TI / Safety Index (CC50/IC50): MT2 cells
Description: as §1, §2, §3, §4

HIV-1 strain CNHN24 = assay: Anti-HIV-1 luciferase indicator assay in MT2 cells, CNHN24; details: for TI / Safety Index (CC50/IC50): MT2 cells
Description: as §1, §2, §3, §4

in vitro = details: human, CC50
Description: as §1
For cytotoxicity assay the same amount of MT2 cells as in antivirus assay but without HIV-1 virus were added to the cytotoxicity plates. The cytotoxicity was measured by Cell Titer-Glo cell viability assay (Promega).

[1] = MT2, MT2 cells, viral strain II B, read-out: IC50
[2] = Human immunodeficiency virus 1, MT2, MT2 cells, viral strain CNHN24, read-out: IC50

SMILES | IC50 (HIV-1 strain NL4-3; read-out: IC50) | TI / Safety Index (CC50/IC50) (HIV-1 strain NL4-3) | IC50 (HIV-1 strain IIIB; [1]) | TI / Safety Index (CC50/IC50) (HIV-1 strain IIIB; viral strain II B) | IC50 (HIV-1 strain CNHN24; [2]) | TI / Safety Index (CC50/IC50) (HIV-1 strain CNHN24; viral strain CNHN24) | CC50 (in vitro) | IC50 (HIV-1 strain NL4-3) | IC50 (HIV-1 strain IIIB; MT2) | IC50 (HIV-1 strain CNHN24; Human immunodeficiency virus 1, MT2)
C=C(C)[C@@H]1CC[C@]2(C(=O)N[C@H]3C[C@@H](C(=O)N4CCOCC4)C3(C)C)CC[C@]3(C)[C@H](CC[C@@H]4[C@@]5(C)CC[C@H](O)C(C)(C)[C@@H]5CC[C@]43C)[C@@H]12 [Example 8, (1R,3aS,5aR,5bR,7aR,9S,11aR,11bR,13aR,13bR)-N-((1S,3R)-2,2-dimethyl-3-(morpholine-4-carbonyl)cyclobutyl)-9-hydroxy-5a,5b,8,8,11a-pentamethyl-1-(prop-1-en-2-yl)icosahydro-1H-cyclopenta[a]chrysene-3a-carboxamide] | 2.2 µM | 9 | 3.14 µM | 6 | 2.83 µM | 7 | 20 µM |  |  | 
C=C(C)[C@@H]1CC[C@]2(C(=O)N[C@H]3C[C@@H](C(=O)N4CCOCC4)C3(C)C)CC[C@]3(C)[C@H](CC[C@@H]4[C@@]5(C)CC[C@H](OC(=O)CC(C)(C)C(=O)O)C(C)(C)[C@@H]5CC[C@]43C)[C@@H]12 [Example 9, 4-((1R,3aS,5aR,5bR,7aR,9S,11aR,11bR,13aR,13bR)-3a-((1S,3R)-2,2-dimethyl-3-(morpholine-4-carbonyl)cyclobutylcarbamoyl)-5a,5b,8,8,11a-pentamethyl-1-(prop-1-en-2-yl)icosahydro-1H-cyclopenta[a]chrysen-9-yloxy)-2,2-dimethyl-4-oxobutanoic acid] |  | 3579 | 0.007 µM | 2658 | 0.008 µM | 2429 | > 20 µM | 0.005 µM |  | 
C=C(C)[C@@H]1CC[C@]2(C(=O)N[C@H]3C[C@@H](C(=O)N4CCCCC4)C3(C)C)CC[C@]3(C)[C@H](CC[C@@H]4[C@@]5(C)CC[C@H](O)C(C)(C)[C@@H]5CC[C@]43C)[C@@H]12 [Example 11, (1R,3aS,5aR,5bR,7aR,9S,11aR,11bR,13aR,13bR)-N-((1S,3R)-2,2-dimethyl-3-(piperidine-1-carbonyl)cyclobutyl)-9-hydroxy-5a,5b,8,8,11a-pentamethyl-1-(prop-1-en-2-yl)icosahydro-1H-cyclopenta[a]chrysene-3a-carboxamide] | 4.25 µM | 4.7 | 5.67 µM | 3.5 | 5.88 µM | 3.4 | > 20 µM |  |  | 
C=C(C)[C@@H]1CC[C@]2(C(=O)N[C@H]3C[C@@H](C(=O)N4CCCCC4)C3(C)C)CC[C@]3(C)[C@H](CC[C@@H]4[C@@]5(C)CC[C@H](OC(=O)CC(C)(C)C(=O)O)C(C)(C)[C@@H]5CC[C@]43C)[C@@H]12 [Example 12, 4-((1R,3aS,5aR,5bR,7aR,9S,11aR,11bR,13aR,13bR)-3a-((1S,3R)-2,2-dimethyl-3-(piperidine-1-carbonyl)cyclobutylcarbamoyl)-5a,5b,8,8,11a-pentamethyl-1-(prop-1-en-2-yl)icosahydro-1H-cyclopenta[a]chrysen-9-yloxy)-2,2-dimethyl-4-oxobutanoic acid] |  | 316 | 0.029 µM | 227 | 0.017 µM | 383 | > 20 µM | 0.021 µM |  | 
C=C(C)[C@@H]1CC[C@]2(C(=O)N[C@@H]3CC[C@H](CN4CCC(Cc5ccccc5)CC4)C3)CC[C@]3(C)[C@H](CC[C@@H]4[C@@]5(C)CC[C@H](OC(=O)CCCC(=O)O)C(C)(C)[C@@H]5CC[C@]43C)[C@@H]12 [Example 33, 5-((1R,3aS,5aR,5bR,7aR,9S,11aR,11bR,13aR,13bR)-3a-((1R,3S)-3-((4-benzylpiperidin-1-yl)methyl)cyclopentylcarbamoyl)-5a,5b,8,8,11a-pentamethyl-1-(prop-1-en-2-yl)icosahydro-1H-cyclopenta[a]chrysen-9-yloxy)-5-oxopentanoic acid] | 6.7 µM | 2.98 | 6.7 µM | 2.98 | 6.7 µM | 2.98 | 20 µM |  |  | 
C=C(C)[C@@H]1CC[C@]2(C(=O)N[C@@H]3CC[C@H](CN4CCN(CC)CC4)C3)CC[C@]3(C)[C@H](CC[C@@H]4[C@@]5(C)CC[C@H](OC(=O)CC(C)(C)C(=O)O)C(C)(C)[C@@H]5CC[C@]43C)[C@@H]12 [Example 36, 4-((1R,3aS,5aR,5bR,7aR,9S,11aR,11bR,13aR,13bR)-3a-((1R,3S)-3-((4-ethylpiperazin-1-yl)methyl)cyclopentylcarbamoyl)-5a,5b,8,8,11a-pentamethyl-1-(prop-1-en-2-yl)icosahydro-1H-cyclopenta[a]chrysen-9-yloxy)-2,2-dimethyl-4-oxobutanoic acid] | 0.005 µM | 4000 | 0.004 µM | 5000 | 0.005 µM | 4000 | > 20 µM |  |  | 
C=C(C)[C@@H]1CC[C@]2(C(=O)N3CCN(CC)CC3)CC[C@]3(C)[C@H](CC[C@@H]4[C@@]5(C)CC[C@H](OC(=O)C6CC(C(=O)O)C6(C)C)C(C)(C)[C@@H]5CC[C@]43C)[C@@H]12 (stereo partly drawn) [Example 54, 3-(((1R,3aS,5aR,5bR,7aR,9S,11aR,11bR,13aR,13bR)-3a-(4-ethylpiperazine-1-carbonyl)-5a,5b,8,8,11a-pentamethyl-1-(prop-1-en-2-yl)icosahydro-1H-cyclopenta[a]chrysen-9-yloxy)carbonyl)-2,2-dimethylcyclobutanecarboxylic acid] | 0.013 µM | 1538 | 0.005 µM | 4000 | 0.024 µM | 833 | > 20 µM |  |  | 
C=C(C)[C@@H]1CC[C@]2(C(=O)N3CCC(Cc4ccccc4)(C(=O)OCC)CC3)CC[C@]3(C)[C@H](CC[C@@H]4[C@@]5(C)CC[C@H](OC(=O)CC(C)(C)C(=O)O)C(C)(C)[C@@H]5CC[C@]43C)[C@@H]12 [Example 57, 4-((1R,3aS,5aR,5bR,7aR,9S,11aR,11bR,13aR,13bR)-3a-(4-benzyl-4-(ethoxycarbonyl)piperidine-1-carbonyl)-5a,5b,8,8,11a-pentamethyl-1-(prop-1-en-2-yl)icosahydro-1H-cyclopenta[a]chrysen-9-yloxy)-2,2-dimethyl-4-oxobutanoic acid] | 0.857 µM | 23 | 0.59 µM | 33 | 1.07 µM | 20 | > 20 µM |  |  | 
C=C(C)[C@@H]1CC[C@]2(C(=O)N3CCC(CC)(C(=O)OCC)CC3)CC[C@]3(C)[C@H](CC[C@@H]4[C@@]5(C)CC[C@H](OC(=O)CC(C)(C)C(=O)O)C(C)(C)[C@@H]5CC[C@]43C)[C@@H]12 [Example 74, 4-((1R,3aS,5aR,5bR,7aR,9S,11aR,11bR,13aR,13bR)-3a-(4-(ethoxycarbonyl)-4-ethylpiperidine-1-carbonyl)-5a,5b,8,8,11a-pentamethyl-1-(prop-1-en-2-yl)icosahydro-1H-cyclopenta[a]chrysen-9-yloxy)-2,2-dimethyl-4-oxobutanoic acid] | 0.165 µM | 47 | 0.086 µM | 90 | 0.163 µM | 47 | 7.76 µM |  |  | 
C=C(C)[C@@H]1CC[C@]2(C(=O)N[C@@H]3CC[C@H](CN4CCC(Cc5ccccc5)CC4)C3)CC[C@]3(C)[C@H](CC[C@@H]4[C@@]5(C)CC[C@H](OC(=O)CC(C)(C)CC(=O)O)C(C)(C)[C@@H]5CC[C@]43C)[C@@H]12 [Example 94, 5-((1R,3aS,5aR,5bR,7aR,9S,11aR,11bR,13aR,13bR)-3a-((1R,3S)-3-((4-benzylpiperidin-1-yl)methyl)cyclopentylcarbamoyl)-5a,5b,8,8,11a-pentamethyl-1-(prop-1-en-2-yl)icosahydro-1H-cyclopenta[a]chrysen-9-yloxy)-3,3-dimethyl-5-oxopentanoic acid] | 0.023 µM | 173 | 0.019 µM | 210 | 0.026 µM | 153 | 4 µM |  |  | 
C=C(C)[C@@H]1CC[C@]2(C(=O)N[C@@H]3C=C[C@H](CN4CCOCC4)C3)CC[C@]3(C)[C@H](CC[C@@H]4[C@@]5(C)CC[C@H](OC(=O)CC(C)(C)C(=O)O)C(C)(C)[C@@H]5CC[C@]43C)[C@@H]12 [Example 95, 2,2-dimethyl-4-oxo-4-((1R,3aS,5aR,5bR,7aR,9S,11aR,11bR,13aR,13bR)-5a,5b,8,8,11a-pentamethyl-3a-((1S,4R)-4-(morpholinomethyl)cyclopent-2-enylcarbamoyl)-1-(prop-1-en-2-yl)icosahydro-1H-cyclopenta[a]chrysen-9-yloxy)butanoic acid] | 0.004 µM | 5000 |  | 20000 |  |  | > 20 µM |  | 0.001 µM | 0.003 µM
